Source: patent US20210139484A1, “DIHYDROISOQUINOLINE-2(1H)-CARBOXAMIDE AND RELATED COMPOUNDS AND THEIR USE IN TREATING MEDICAL CONDITIONS” (GOSSAMER BIO SERVICES, INC., priority 2018, published 2021)

target: T1, human HPK1 protein (Homo sapiens, UniProt Q92918); assay: Human HPK1 protein TR-FRET assay; type: biochemical; details: 1 mM ATP, Table 19
T1 construct: recombinant human HPK1 protein (a.a. 1-346) was expressed in Sf9 insect cells; GST (N); purchased Signalchem M23-11G; host or cells: Sf9 insect cells (baculovirus)
T1 sequence (Q92918 1-346): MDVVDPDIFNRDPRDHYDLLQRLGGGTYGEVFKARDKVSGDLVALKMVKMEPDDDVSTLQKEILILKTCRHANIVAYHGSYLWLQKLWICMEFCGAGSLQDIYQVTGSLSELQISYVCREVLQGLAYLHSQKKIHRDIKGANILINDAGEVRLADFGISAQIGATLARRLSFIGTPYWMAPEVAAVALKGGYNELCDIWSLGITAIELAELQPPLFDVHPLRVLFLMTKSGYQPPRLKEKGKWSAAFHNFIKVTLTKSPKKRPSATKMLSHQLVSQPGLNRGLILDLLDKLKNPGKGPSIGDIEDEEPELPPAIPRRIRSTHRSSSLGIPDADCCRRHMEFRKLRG
Method: Exemplary compounds from the above Examples were tested for ability to inhibit HPK1 using a human HPK1 protein TR-FRET Assay. Assay procedures and results are described below.
N-terminal GST-tagged recombinant human HPK1 protein (a.a. 1-346) was expressed in Sf9 insect cells using a baculovirus expression system (Signalchem Catalog #M23-11G). The enzyme was diluted in assay buffer (50 mM Tris pH 7.5, 1 mM MgCl2, 0.01% NP-40 and 2 mM DTT) to obtain a 4× working solution at a concentration of 40 nM HPK1 enzyme.
A 5 μM stock of ULight™ CREBtide peptide RRPSYRK (Perkin Elmer Product No. TRF0107-M) derived from human cAMP Response Element Binding (CREB) Protein was prepared in storage buffer containing 50 mM Tris-HCl (pH 7.4), 0.9% NaCl, 0.1% BSA, and 0.05% sodium azide. The CREBtide substrate was diluted in assay buffer (50 mM Tris pH 7.5, 1 mM MgCl2, 0.01% NP-40, 2 mM DTT) with 2 mM ATP to a final concentration of 200 nM CREBtide peptide to obtain a 2× working solution of substrate. HPK1 enzyme and CREBtide substrate solutions were mixed with compounds diluted in DMSO to obtain a final concentration of enzyme, substrate, and ATP of 10 nM, 100 nM, and 1 mM, respectively, in 1% DMSO. The final assay mixture was incubated at room temperature for 60 minutes.
A solution of Europium-labeled anti-phospho-CREB (Ser133) antibody (Perkin Elmer Product No. TRF0200-M), EDTA and LANCE™ Detection Buffer (Perkin Elmer Product No. CR97-100) were added to each well to obtain a final concentration of 2 nM antibody, 10 mM EDTA and 1× LANCE buffer. The resulting mixture was incubated at room temperature for 60 minutes.
The fluorescence resonance energy transfer (FRET) signal was measured on an Envision plate reader: Excitation filter=340 nm, APC emission=665 nm, Europium emission=615 nm, dichroic mirror=D400/D630, delay time=100 μs, and integration time=200 μs. The half maximal inhibitory concentration (IC50) values for compounds were calculated from the quotient of the fluorescence signal at 665 nm divided by the fluorescence signal at 615 nm. The quotient of the fluorescence signals in the presence of DMSO without compound is set as 100 percent enzymatic activity. A 4-parameter logistic model in PRISM (GraphPad) was used to calculate the IC50 for a given compound.

Compound	IC50
CCN1CCN(Cc2ccc(NC(=O)N3CCc4ccc(Oc5ccnn6cc(F)cc56)cc4C3)cc2C(F)(F)F)CC1 [II-22]	< 500 nM
Cc1cc2c(Oc3ccc4c(c3)CN(C(=O)Nc3cnc(OC5CCN(C)CC5)c(C(F)(F)F)c3)CC4C)ccnc2[nH]1 (single isomer, unassigned) [IV-40]	< 500 nM
CCN1CCC(Oc2ccc(NC(=O)N3CCc4ccc(Oc5ccnc6[nH]ccc56)cc4[C@@H]3C)cc2C(F)F)CC1 [V-16]	500 to 5000 nM
CCN1CCN(Cc2ccc(NC(=O)N3CCc4ccc(Oc5ncnc6[nH]cnc56)cc4C3)cc2C(F)(F)F)CC1 [II-6]	< 500 nM
CCN1CCN(Cc2ccc(NC(=O)N3CCc4ncc(Oc5ccnc6[nH]ccc56)cc4C3)cc2C(F)(F)F)CC1 [VII-1]	< 500 nM
CCN1CCN(Cc2ccc(NC(=O)C3CCc4ccc(Oc5ccnc6[nH]c(C)cc56)cc4N3C)cc2C(F)(F)F)CC1 (stereo not drawn) [compound 16, N-(4-((4-ethylpiperazin-1-yl)methyl)-3-(trifluoromethyl)phenyl)-1-methyl-7-((2-methyl-1H-pyrrolo[2,3-b]pyridin-4-yl)oxy)-1,2,3,4-tetrahydroquinoline-2-carboxamide]	< 500 nM
CCN1CCN(Cc2ccc(NC(=O)N3CCc4ccc(Oc5ccnc6[nH]c(CCO)cc56)cc4[C@@H]3C)cc2C(F)(F)F)CC1 [V-24]	< 500 nM
CCN1CCN(Cc2ccc(NC(=O)N3CCc4ccc(Oc5ccnn6cc(-c7c[nH]cn7)cc56)cc4C3)cc2C(F)(F)F)CC1 [II-25]	< 500 nM
Cc1cc2c(Oc3ccc4c(c3)[C@H](C)N(C(=O)Nc3cnc(OC5CCNCC5)c(C(F)(F)F)c3)CC4)ccnc2[nH]1 [VI-1]	< 500 nM
CCN1CCN(Cc2ccc(NC(=O)N3CCc4ccc(Oc5ccnc6[nH]c(C)cc56)cc4C3)cc2C(F)(F)F)CC1 [III-4]	< 500 nM
CCN1CCN(Cc2ccc(NC(=O)N3CCc4ccc(Oc5ncnn6cc(-c7cnn(C)c7)cc56)cc4C3)cc2C(F)(F)F)CC1 [II-2]	< 500 nM
Cc1cc2c(Oc3ccc4c(c3)[C@H](C)N(C(=O)Nc3cnc(OC5CCN(CCO)CC5)c(C(F)(F)F)c3)CC4)ccnc2[nH]1 [VI-18]	< 500 nM
C[C@H]1c2cc(Oc3ccnc4[nH]ccc34)ccc2CCN1C(=O)Nc1ccc(CN2CCN(C3COC3)CC2)c(C(F)(F)F)c1 [V-21]	500 to 5000 nM
Cc1cc2c(Oc3ccc4c(c3)[C@H](C)N(C(=O)Nc3cnc(OC5CN(C)C5)c(C(F)(F)F)c3)CC4)ccnc2[nH]1 [VI-12]	500 to 5000 nM
CCN1CCN(Cc2ccc(NC(=O)N3CCc4ncc(Oc5ccnc6[nH]ncc56)cc4C3C)cc2C(F)(F)F)CC1 (stereo not drawn) [VIII-3]	500 to 5000 nM
Cc1cc2c(Oc3cnc4c(c3)CN(C(=O)Nc3cnc(OC5CCN(C)CC5)c(C(F)(F)F)c3)CC4C)ncnc2[nH]1 (stereo not drawn) [VII-13]	< 500 nM
CCN1CCN(Cc2ccc(NC(=O)N3Cc4cc(Oc5ccnc6[nH]c(C)cc56)c(F)cc4C(C)C3)cc2C(F)(F)F)CC1 (stereo not drawn) [IV-27]	< 500 nM
CCN1CCN(Cc2ccc(NC(=O)N3CCc4ccc(Oc5ccnc6[nH]c(C#N)cc56)cc4[C@@H]3C)cc2C(F)(F)F)CC1 [V-10]	< 500 nM
Cc1cc2c(Oc3cnc4c(c3)CN(C(=O)Nc3cnc(OC5CCN(C)CC5)c(C(F)(F)F)c3)CC4C)ccnc2[nH]1 (stereo not drawn) [VII-6]	< 500 nM
CCN1CCN(Cc2ccc(NC(=O)N3Cc4cc(Oc5ccnc6[nH]c(C)cc56)ccc4C(C)C3)cc2C(F)(F)F)CC1 (stereo not drawn) [IV-19]	< 500 nM
Cc1cc2c(Oc3cnc4c(c3)CN(C(=O)Nc3cnc(OC5CCN(C)CC5)c(C(F)(F)F)c3)CC4C)ncnc2[nH]1 (stereo not drawn) [VII-14]	< 500 nM

same assay, conditions: 1 mM ATP, Table 20

Compound	IC50
C[C@@H]1Cc2ccc(Oc3ccnc4[nH]c(C5(O)CC5)cc34)cc2CN1C(=O)Nc1cnc(CN2CCN(C)CC2)c(C(F)(F)F)c1 [XVI-3]	< 500 nM
CC[C@H]1CN(C(=O)Nc2ccc(CN3CCN(C)CC3)c(C(F)F)c2)Cc2cc(Oc3ccnc4[nH]c(C5CC5)cc34)cnc21 [XIV-59]	< 500 nM
Cc1cc2c(Oc3cnc4c(c3)CN(C(=O)Nc3ccc(CN5C[C@H]6C[C@@H]5CN6C)c(C(F)(F)F)c3)C[C@H]4C)ccnc2[nH]1 [XIV-99]	500 to 5000 nM
CC[C@H]1CN(C(=O)Nc2ccc(CN3CCN(CCO)CC3)c(C(F)F)c2)Cc2cc(Oc3ccnc4[nH]c(C#N)cc34)ccc21 [XV-21]	< 500 nM
CC[C@@H]1CN(C(=O)Nc2ccc(CN3CCN(C)CC3)c(C(F)F)c2)Cc2cc(Oc3ncnc4[nH]c(C5CC5)cc34)ccc21 [XV-1]	< 500 nM
CCN1CCN(Cc2ccc(NC(=O)N3CCc4cnc(Nc5ccnc6[nH]ccc56)nc4C3)cc2C(F)(F)F)CC1 [XVIII-11]	500 to 5000 nM
CCN1CCN(Cc2ccc(NC(=O)N3Cc4cc(Oc5ccnc(NCCO)c5)cnc4C(C)C3)cc2C(F)(F)F)CC1 (single isomer, unassigned) [XIV-16]	500 to 5000 nM
CC[C@H]1CN(C(=O)Nc2ccc(CN3CCN(C)CC3)c(C(F)(F)F)c2)Cc2cc(Oc3ccnc4[nH]c(-c5n[nH]c(=O)o5)cc34)cnc21 [XIV-114]	< 500 nM
CCC1CN(C(=O)Nc2ccc(CN3CCN(CC)CC3)c(C(F)(F)F)c2)Cc2cc(Oc3ccnc4[nH]c(C5=CCN(C(=O)C6CC6)CC5)cc34)cnc21 (stereo not drawn) [XIV-155]	< 500 nM
CN(C)C(=O)c1cc2c(Oc3ccc4c(c3)CN(C(=O)Nc3ccc(CN5CCNCC5)c(C(F)(F)F)c3)CC4)c(F)cnc2[nH]1 [XVIII-3]	< 500 nM
CC[C@H]1CN(C(=O)Nc2ccc(CN3CCN(C)CC3)c(C(F)(F)F)c2)Cc2cc(Oc3ccnc4[nH]c(C#N)cc34)cnc21 [compound 20, (8S)-3-[(2-Cyano-1H-pyrrolo[2,3-b]pyridin-4-yl)oxy]-8-ethyl-N-[4-[(4-methylpiperazin-1-yl)methyl]-3-(trifluoromethyl)phenyl]-7,8-dihydro-5H-1,6-naphthyridine-6-carboxamide]	< 500 nM
CN1CCN(Cc2ncc(NC(=O)N3CCc4ccc(Oc5c(F)cnc6[nH]c(-c7ccncc7)cc56)cc4C3)cc2C(F)(F)F)CC1 [XII-10]	< 500 nM
C[C@H]1CN(C(=O)Nc2ccc(CN3CCN(C)CC3)c(C(F)(F)F)c2)Cc2cc(Oc3ccnc4[nH]c(C5(O)COC5)cc34)ccc21 [XV-32]	< 500 nM
CC[C@H]1CN(C(=O)Nc2ccc(CN3CCN(CCO)CC3)c(C(F)F)c2)Cc2cc(Oc3ccnc4[nH]c(C(N)=O)cc34)ccc21 [XV-41]	< 500 nM
CC[C@H]1CN(C(=O)Nc2ccc(CN3CCNCC3)c(C(F)(F)F)c2)Cc2cc(Oc3ccnc4[nH]c(-c5nnc(C)o5)cc34)cnc21 [XIV-113]	< 500 nM
CCC1CN(C(=O)Nc2ccc(CN3CCN(CC)CC3)c(C(F)(F)F)c2)Cc2cc(Oc3ccnc4[nH]c(C5CCOCC5)cc34)cnc21 (stereo not drawn) [XIV-70]	< 500 nM
CC[C@H]1CN(C(=O)Nc2ccc(CN3CCN(C)CC3)c(C(F)(F)F)c2)Cc2cc(Oc3ccnc4[nH]c(-c5cc[nH]n5)cc34)cnc21 [XIV-148]	< 500 nM
C[C@H]1c2cc(Oc3ccnc4[nH]c(CO)cc34)ccc2CCN1C(=O)Nc1ccc(CN2CCNCC2)c(C(F)(F)F)c1 [XIII-8]	< 500 nM
CN1CCN(Cc2ncc(NC(=O)N3CCc4ccc(Oc5c(F)cnc6[nH]c(-c7cnn(C)c7)cc56)cc4C3)cc2C(F)(F)F)CC1 [XII-1]	< 500 nM
CC[C@H]1CN(C(=O)Nc2ccc(CN3CCN(C)CC3)c(C(F)(F)F)c2)Cc2cc(Oc3ccnc4[nH]c(C(=O)N(C)CCO)cc34)cnc21 [XIV-105]	< 500 nM
C[C@H]1c2cc(Oc3ccnc4[nH]c(CO)cc34)ccc2CCN1C(=O)Nc1cnc(OC2CCN(C)CC2)c(C(F)(F)F)c1 [XIII-3]	< 500 nM
